Results as given in patent US20130309224A1 (BOEHRINGER INGELHEIM INTERNATIONAL GMBH, priority 2012, published 2013).

Assays:
[1] = tested on: Raji Burkitt lymphoma cells; test: Apoptosis assay (Annexin V/PI staining, FACS) on Raji cells; type: cell-based; conditions: 48 h, A2 10 μg/ml, AnnexinV positive cells corrected for background
[2] = tested on: Ramos Burkitt lymphoma cells; test: Apoptosis assay (Annexin V/PI staining, FACS) on Ramos cells; type: cell-based, human; conditions: 48 h, A2 10 μg/ml, AnnexinV positive cells corrected for background
[3] = tested on: DoHH2 tumor cells; test: Example 2: DoHH2 human xenograft tumor model, A2 with bendamustine; type: in vivo, CB-17 SCID mice; conditions: A2 10 mg/kg twice weekly, bendamustine 10 mg/kg twice weekly ip; compared to control treated animals
[4] = tested on: human follicular lymphoma (DOHH2); test: Example 4: DOHH2 follicular lymphoma xenograft, A2 with bendamustine, tumor volume; type: in vivo, C.B-17 scid mice
[5] = Example 4: body weight as indicator of tolerability; conditions: for tolerability / body weight loss (in words): A2 10 mg/kg, bendamustine 20 mg/kg i.p.
[6] = molecular target: T1, human CD37 (human, UniProt P11049 1-281, limits assumed); test: not described (statement in the discussion of Example 3)
T1 sequence (looked up): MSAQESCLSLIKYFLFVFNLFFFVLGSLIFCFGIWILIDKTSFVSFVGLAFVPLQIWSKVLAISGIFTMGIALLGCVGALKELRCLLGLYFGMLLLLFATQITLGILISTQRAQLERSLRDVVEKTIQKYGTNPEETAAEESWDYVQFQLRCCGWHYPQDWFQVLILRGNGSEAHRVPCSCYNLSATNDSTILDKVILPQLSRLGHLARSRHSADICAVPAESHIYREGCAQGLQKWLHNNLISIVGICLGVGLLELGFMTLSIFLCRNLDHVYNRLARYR

[7] = molecular target: T2, mouse CD37 (mouse, UniProt Q61470 1-281, limits assumed); test: as above
T2 sequence (looked up): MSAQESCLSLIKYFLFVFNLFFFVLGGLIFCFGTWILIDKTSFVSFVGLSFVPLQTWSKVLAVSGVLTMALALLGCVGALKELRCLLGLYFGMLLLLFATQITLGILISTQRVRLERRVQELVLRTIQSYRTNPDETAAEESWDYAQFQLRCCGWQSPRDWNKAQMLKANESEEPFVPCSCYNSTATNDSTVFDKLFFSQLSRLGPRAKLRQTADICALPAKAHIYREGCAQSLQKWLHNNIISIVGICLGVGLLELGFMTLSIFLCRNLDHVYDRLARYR

[8] = bendamustine concentration 400 μM

Molecule	% apoptotic cells ([1]; bendamustine concentration 200 μM)	% apoptotic cells [1, 8]	% apoptotic cells ([2]; bendamustine concentration 100 μM)	% apoptotic cells [2, 8]	anti-tumor effect (tumor growth retardation) [3]	inhibition of DOHH2 tumor growth (in words) ([4]; A2 10 mg/kg, bendamustine 20 mg/kg i.p.)	CR [x/7] ([4]; complete tumor regressions, day 16)	tumors growth inhibited (of 7 treated) ([4]; day 16)	TGI [%] ([4]; median, day 16, vs vehicle control, A2 10 mg/kg i.p. d1,d5,d8,d12,d15, bendamustine 20 mg/kg i.p. two injections)	PR [x/7] ([4]; partial tumor regressions, day 16)	tolerability / body weight loss (in words) [5]	tolerability / body weight loss (in words) ([5]; listed as Bendamustine)	body weight loss in median within the first week of treatment ([5]; bendamustine i.p. day 2 and 6)	binding result [6]	binding result [7]
Cn1c(CCCC(=O)O)nc2cc(N(CCCl)CCCl)ccc21 [bendamustine, 4-[5-[Bis(2-chloroethyl)amino]-1-methylbenzimidazol-2-yl]butanoic acid, reference compound]	10%	13%	19%	35%	significant anti-tumor effect	significant inhibition of tumor growth	0 x/7	7 tumors	57%	0 x/7	moderately tolerated	resulted in weight loss	up to 7.9%		
Antibody A2 (antibody, human IgG1, kappa, V domains shown, also called mAb A2; MAb A2) VH: AVQLQQSGPELEKPGASVKISCKASGYSFTGYNMNWVKQNNGKSLEWIGNIDPYYGGTTYNRKFKGKATLTVDKSSSTAYMQLKSLTSEDSAVYYCARSVGPMDYWGQGTSVTVSS VL: DIQMTQSPASLSASVGETVTITCRTSENVYSYLAWYQQKQGKSPQLLVSFAKTLAEGVPSRFSGSGSGTQFSLKISSLQPEDSGSYFCQHHSDNPWTFGGGTELEIKR														binds	no binding
